The record followed here is US20090047365A1, “Novel Concomitant Use of Sulfonamide Compound with Anti-Cancer Agent” (Eisai R & D Management Co., Ltd., priority 2005, published 2009).

Assay [1] deals with human colon cancer cell line Colo320DM. The assay is described as follows: subcutaneous transplant model of human colon cancer cell line (Colo320DM), E7820 and Oxaliplatin. Type of assay: in vivo. The note with it: Colo320DM nude mouse; E7820 50 mg/kg twice a day, two weeks, oral; Oxaliplatin 10 mg/kg once in four days x3, intravenous; control 11.99 ± 1.35.
Assay [2] relates to DNA-topoisomerase II mRNA. Put plainly: quantification of DNA-topoisomerase II mRNA by RT-PCR. Type of assay: cell-based, human. The following applies: HUVEC, 1 μM, six hours; untreated group 4.4 μg/ml. Here is the method: 2×10^6 of human umbilical vein endothelial cells were seeded in a 25 cm^2 cell culture bottle and cultured in a CO2 incubator at 37° C. using a EGM-2 medium (Sanko Junyaku) overnight. On the following day, E7820 was added to give 1 μM. Six hours later, RNA was prepared from the cells. Specifically, the medium was removed from the cells. The cells were added with and dissolved in 3 ml of ISOGEN (Wako Pure Chemical Industries), added with an equal volume of CHCl3 and agitated. Then, the water phase was extracted. Half the amount of the water phase of isopropanol was added, left to stand for 5 minutes and centrifuged to collect the precipitate. The precipitate was washed with 70% ethanol, added with and dissolved in sterile water and absorbance at 260 nm was determined with a spectrophotometer to quantify the RNA amount.
Subsequently, TaqMan Gold RT-PCR kit (Applied Biosystems) was used to perform RT-PCR reaction. Specifically, 0.1 μg of RNA was added to 50 μl of the reaction solution, and subjected to reactions at 25° C. for 10 minutes, 48° C. for 30 minutes and 95° C. for 5 minutes to prepare cDNA. Then, a primer for determining DNA-topoisomerase II mRNA (ABI Taqman probe Hs00172214 ml) was used for PCR reaction and then ABI7700 (Applied Biosystems) was used for quantifying RNA amount.

Another assay relates to HCT116 cells. The assay is described as follows: DNA microarray analysis (Example 8), correlation coefficients and hierarchical cluster analysis. Type of assay: cell-based, human. The following applies: 24 hours treatment at twice the 50% growth inhibitory concentration, similarity among the compounds named together. Here is the method: HCT116 cells were cultured in an RPMI-1640 medium supplemented with 10% fetal bovine serum, 100 units/ml penicillin and 100 μg/ml streptomycin. The following cultivation and compound treatment were carried out in an incubator at 5% CO2 and 37° C. HCT116 cells were seeded in 10 cm-diameter cell culture dishes at 2.0×10^6 cells/dish, cultured for 24 hours and subjected to the following compound treatment.
In this example, changes in the gene expression of HCT116 cells upon treatments with 12 compounds, i.e., E7820 (0.16 μM), E7070 (0.26 μM), LY186641 (59 μM), LY295501 (24 μM), LY-573636 (9.6 μM), CQS (4.0 μM), MST16 (100 μM), etoposide (3.6 μM), ethoxzolamide (410 μM), capsaicin (280 μM), trichostatin A (0.16 μM) and kenpaullone (7.1 μM) were examined.
The concentration of each compound used for the treatment was set to twice the 50% growth inhibitory concentration of each compound to the HCT116 cells (based on three days of antiproliferatrive activity using MTT). The cells were collected 24 hours after the treatment at the concentration indicated in parentheses following each compound name above. Similarly, cells cultured for 24 hours without the addition of any compound were also collected.
Total RNA extraction from the collected cells was performed using TRIZOL reagent (Invitrogen) according to the attached instruction.
Gene expression analysis using a DNA microarray was carried out in the same manner as “(2) Analysis of gene expression using DNA microarray” in Example 7.
This example was conducted for each sample in duplicate (for the convenience of the experiment, samples were given branch numbers like control-1, control-2, E7070-1, E7070-2 and so on for distinction). Then, GeneChip (Affymetrix) system (Human Focus array) was used for analyzing changes in the gene expression induced by each compound.
Twenty-six “.cel” files obtained in this example (13 samples (a control+12 compounds)×2) were subjected to RMA method (robust multi-array average method (Biostatistics (2003), 4, 249-264)) for normal distribution at probe level, and then the logarithm value of the signal intensity at gene level was calculated. Next, the logarithm value of the signal intensity of the untreated group (control-1) was subtracted from the logarithm value of the signal intensity of the compound-treated group for each gene to obtain the logarithm value of the signal ratio of the compound-treated group to control-1. Then, cosine correlation coefficients were calculated as correlation coefficients between the experiments (FIG. 5). Based on these correlation coefficients, hierarchical cluster analysis was performed according to UPGMA method (Unweighted Pair Group Method with Arithmetic mean method) (FIG. 6). Control-2 was also subjected to similar calculation (FIGS. 7 and 8). The softwares used were R 2.0.1 (http://www.r-project.org/) and affy package 1.5.8 (http://www.bioconductor.org).

The test system of assay [3] is human colon cancer cell line Colo320DM. Put plainly: subcutaneous transplant model of human colon cancer cell line (Colo320DM), E7820 and CPT-11. The following applies: Colo320DM nude mouse; E7820 50 mg/kg twice a day, two weeks, oral; CPT-11 100 mg/kg once in four days x3, intravenous; control 11.99 ± 1.35.
Experimental: Human colon cancer cell line Colo320DM (purchased from Dainippon Pharmaceutical) was cultured in RPMI1640 (containing 10% FBS) in a 5% carbon dioxide incubator at 37° C. to about 80% confluence, and the cells were collected with trypsin-EDTA. Using a phosphate buffer containing 50% matrigel, 7.5×10^7 cells/mL suspension was prepared, and 0.1 mL each of the resulting cell suspension was subcutaneously transplanted to a nude mouse at the side of its body. […] The major and minor axes of tumors were measured with Digimatic caliper (Mitsutoyo), and tumor volumes and relative tumor volumes were calculated according to the following formulae.
Tumor Volume TV=Major axis of tumor(mm)×(minor axis of tumor)^2(mm^2)/2
(§1) Relative Tumor Volume RTV=Tumor volume on measurement day/Tumor volume on the first administration day
Assay [4] has as its system human pancreas cancer cell line KP-1. Put plainly: subcutaneous transplant model of human pancreas cancer cell line (KP-1), E7820 and Gemcitabine. The note with it: KP-1 nude mouse; E7820 50 mg/kg twice a day, three weeks, oral; Gemcitabine 200 mg/kg once in three days x4, intravenous; control 14.8 ± 2.28.
Experimental: Human pancreas cancer cell line KP-1 (obtained from the National Kyushu Cancer Center) was cultured in RPMI1640 (containing 10% FBS) in a 5% carbon dioxide incubator at 37° C. to about 80% confluence, and the cells were collected with trypsin-EDTA. Using a phosphate buffer, 1×10^8 cells/mL suspension was prepared, and 0.11 mL each of the resulting cell suspension was subcutaneously transplanted to a nude mouse at the side of its body. […] The major and minor axes of tumors were measured with Digimatic caliper (Mitsutoyo), and tumor volumes and relative tumor volumes were calculated according to the following formulae.
Tumor Volume TV=Major axis of tumor(mm)×(Minor axis of tumor)^2(mm^2)/2
as §1
Another assay relates to HCT116-C9. The assay is described as follows: cell growth inhibition assay (MTT), parent line of E7070-resistant lines. Type of assay: cell-based, human. The following applies: HCT116-C9, 72 hours, Example 11, read-out: antiproliferative activity IC50. Here is the method: An E7070-resistant cell line was used to assess the antiproliferative activities of E7820, LY186641, LY295501, LY-ASAP and CQS. HCT116-C9 was a substrain separated from human colon cancer-derived HCT116 (American Type Culture Collection, Manassas, Va., U.S.A.). This HCT116-C9 was cultured in the presence of E7070 while incrementally increasing the E7070 concentration, thereby obtaining E7070-resistant substrains HCT116-C9-C1 and HCT116-C9-C4 (Molecular Cancer Therapeutics, 2002, 1, 275-286).
Three cell lines, i.e., HCT116-C9, HCT116-C9-C1 and HCT116-C9-C4, were each seeded at 3000 cells/well onto a 96-well microplate (flat bottom) (50 μl/well). Twenty-four hours later, they were added with a 3-fold dilution series of each compound (50 μl/well). Seventy-two hours later, the antiproliferative activities were assessed by MTT method (Mossmann T., J. Immunol. Methods, 1983, 65, 55-63). The 50% growth inhibitory concentrations to the cancer cells were obtained by a least square method.
In exactly the same manner as in Example 10, an E7070-resistant cell line was used to assess the antiproliferative activities of LY573636 as well as those of E7070.

By IC50 is commonly meant the concentration that inhibits the measured activity by half.

For `Cc1ccc(NS(=O)(=O)c2cccc(C#N)c2)c2[nH]cc(C#N)c12` [E7820, N-(3-cyano-4-methyl-1H-indole-7-yl)-3-cyanobenzenesulfonamide], the “Relative tumor volume on Day 15 Average ± standard deviation” value in assay [1] and in assay [3] was 7.05 ± 1.15 in each case. Also, the “amount of DNA-topoisomerase II mRNA” value in assay [2] was determined as 1.6 µg/mL. In the assay on HCT116 cells, the “changes in gene expression (correlation coefficients, hierarchical cluster analysis)” value was “very similar genetic alterations”. Further, the “Relative tumor volume on Day 22 Average ± standard deviation” value in assay [4] was found to be 8.81 ± 2.57.
On to `NS(=O)(=O)c1ccc(S(=O)(=O)Nc2cccc3c(Cl)c[nH]c23)cc1` [E7070, N-(3-chloro-1H-indole-7-yl)-4-sulfamoylbenzenesulfonamide], for which the “changes in gene expression (correlation coefficients, hierarchical cluster analysis)” value with HCT116 cells was “very similar genetic alterations”. In addition, the IC50 with HCT116-C9 turned out to be 127 nM.
